# Test results reported in patent US10717758B2, “D-amino acid compounds for liver disease” (priority 2012, dated 2020).
# Read-outs that look alike come from different tables or passages of the source.
# Tests used:
# [1] = Liver triphosphate and plasma prodrug and nucleoside PK after single oral dose (Example 5); type: in vivo, Cynomolgus monkeys; conditions: oral 10 mg/kg
# Protocol: For each compound, a single oral dose at 10 mg/kg in PEG 200 (dose volume 3 mL/kg) was administered to cynomolgus monkeys. Untreated animals were used for the collection of control liver. Plasma samples were collected at 0.5, 1, 2, 4, 6, 8, 12 and 24 hours for compound 37, diastereomer 2.
# (§1) Plasma samples were analyzed for the prodrug and nucleoside by LC-MS/MS. For protein precipitation and extraction, each plasma sample (50 μL) was treated with 500 μL of 0.2% formic acid in acetonitrile and 20 μL of an appropriate internal standard working solution. After vortexing and centrifugation, 500 μL of the sample extracts were transferred to a new plate, dried under N2 at ˜28° C. and reconstituted with 75 μL of 0.2% FA in water. The extracts were chromatographed on an Aquasil C18 column using a gradient system of 0.2% formic acid in water and acetonitrile. The analytes were detected and quantified by tandem mass spectrometry in positive ion mode on an MDS Sciex API4000 equipped with a Turbo Ionspray® interface.
# Liver samples were analyzed for the relevant nucleoside triphosphate by LC-MS/MS. […] Appropriate internal standard solution was added to the homogenate followed by neutralization with 20% ammonium hydroxide solution and addition of 500 μL 1% formic acid. The tissue samples were extracted by weak anion exchange solid phase extraction (SPE). Post extraction, the eluates were evaporated under nitrogen, followed by reconstitution before injection onto the LC-MS/MS system.
# Zluc cells = assay: Cytotoxicity evaluation in Zluc cells (CellTiter-Blue); type: cell-based, human; conditions: read-out: HCV Replicon CC50
# Protocol: For cytotoxicity evaluation, Zluc cells were treated with compound as described herein, and cell viability was monitored using the CellTiter-Blue Cell Viability Assay (Promega) by adding 20 μL of the assay solution to each well. The plates were then incubated at 37° C./5% CO2 for at least 3 hours.
# Huh-7 cells = assay: Release of active metabolite in Huh-7 cells; type: in vitro ADME, human; conditions: Table 7
# Protocol: Huh-7 cells were plated in 1 mL culture medium (DMEM, containing glucose, L-glutamine and sodium pyruvate, 10% FBS, 100 IU/mL penicillin, 100 μg/mL streptomycin, 2 mM GlutaMAX, 1% MEM non-essential amino acids) at the concentration 0.8, 0.4 and 0.2 million cells per well on 6 well plates for 24, 48 and 72 hr treatment, respectively. Plated cells were incubated overnight at 37° C. in an incubator.
# The following morning test compound was diluted to 20 μM from a stock solution in DMSO in fresh culture medium pre-warmed to 37° C. and 1 mL of the solution/well was added to cells. A final medium volume per well was 2.0 mL, test compound concentration in well was 10 μM and final DMSO concentration was 0.1%.
# After 24, 48 or 72 hr, the medium was carefully removed and cell monolayers were washed twice with 2 mL ice-cold PBS per well. Following the last wash, all PBS was carefully removed and 1.0 mL of extraction solution (ice-cold 70% methanol) added. The plate was tightly covered with Parafilm, plastic plate cover and Parafilm again and an intracellular content was extracted at −20° C. for 24 hr.
# After 24 hr the extracts were transferred into polypropylene microfuge tubes and dry on a refrigerated centrivap concentrator. Dry residues were reconstituted in 250 μL of HPLC-grade water and centrifuged at 16,000×g for 10 min. Aliquots (100 μL each) of the supernatants were transferred into a 96 well plate and internal standard (4 ng/mL final concentration) was added as the internal standard (IS) for LC-MS/MS analysis.
# cathepsin A (CatA) = target: T1, cathepsin A (CatA) (Homo sapiens, UniProt P10619); assay: Hydrolysis of prodrugs by Cathepsin A; type: in vitro ADME
# T1 sequence (P10619 29-326 limits assumed): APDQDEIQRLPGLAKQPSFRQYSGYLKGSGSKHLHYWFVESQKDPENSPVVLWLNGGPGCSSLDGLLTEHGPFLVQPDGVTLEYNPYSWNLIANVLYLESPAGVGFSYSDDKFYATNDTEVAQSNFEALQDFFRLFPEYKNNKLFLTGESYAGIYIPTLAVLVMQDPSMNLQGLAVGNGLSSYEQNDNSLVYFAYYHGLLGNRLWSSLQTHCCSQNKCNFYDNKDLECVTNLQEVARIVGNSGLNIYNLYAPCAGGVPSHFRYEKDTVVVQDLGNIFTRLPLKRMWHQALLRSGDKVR
# T1 sequence (P10619 327-480 limits assumed): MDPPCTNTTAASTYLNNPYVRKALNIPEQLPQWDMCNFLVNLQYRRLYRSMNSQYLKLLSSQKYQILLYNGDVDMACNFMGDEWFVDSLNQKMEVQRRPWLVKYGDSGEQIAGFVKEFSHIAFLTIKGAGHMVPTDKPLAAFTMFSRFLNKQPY
# Protocol: CatA, cathepsin L (CatL) and CES1 were purchased from R & D Systems (Minneapolis, Minn.). Prior to the enzymatic hydrolysis reactions, CatA was activated according to the manufacturer's instruction. Briefly, CatA (0.05 μg/μL) was incubated with CatL (0.005 μg/μL) for 30 min at 37° C. in 25 mM MES pH 6.0 containing 5 mM DTT. The reaction was stopped by addition of the CatL specific inhibitor E64 (10 μM).
# The CatA assay was performed at 37° C. The reaction mixture contained 25 mM MES buffer pH 6.0, 100 mM NaCl, 4 mM DTT and 100 μM of the compound. The reaction was started by addition of the activated CatA enzyme to a final concentration of 0.005 μg/μL. […] Reactions were stopped by mixing the sample with an equal volume of ice-cold methanol, and were loaded on a HPLC for analysis.
# [2] = target: T2, carboxylesterase 1 (CES1) (Homo sapiens, UniProt P23141); assay: Hydrolysis of prodrugs by Carboxylesterase 1; type: in vitro ADME; conditions: for CES1 hydrolysis: 100 μM compound, 37° C., pH 7.5
# T2 construct: purchased R & D Systems (Minneapolis, Minn.)
# T2 sequence (P23141 18-567): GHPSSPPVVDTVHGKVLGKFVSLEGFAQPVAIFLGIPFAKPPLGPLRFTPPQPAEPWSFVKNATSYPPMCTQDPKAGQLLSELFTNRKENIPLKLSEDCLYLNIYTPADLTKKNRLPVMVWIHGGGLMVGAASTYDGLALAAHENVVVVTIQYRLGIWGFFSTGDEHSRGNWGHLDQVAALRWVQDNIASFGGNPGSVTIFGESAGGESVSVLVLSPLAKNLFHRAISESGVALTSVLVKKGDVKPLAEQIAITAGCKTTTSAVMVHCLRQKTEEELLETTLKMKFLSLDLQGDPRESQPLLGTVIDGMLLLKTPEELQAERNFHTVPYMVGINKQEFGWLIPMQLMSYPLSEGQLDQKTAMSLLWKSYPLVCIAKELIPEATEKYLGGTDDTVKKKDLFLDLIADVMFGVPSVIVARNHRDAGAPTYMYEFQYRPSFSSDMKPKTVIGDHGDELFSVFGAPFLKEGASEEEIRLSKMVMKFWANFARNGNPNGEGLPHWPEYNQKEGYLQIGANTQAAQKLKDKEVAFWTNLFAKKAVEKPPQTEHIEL
# Protocol: CES1 assay was performed at 37° C. in the reaction mixture containing 50 mM Tris/HCl buffer pH 7.5 and 100 μM of the compound. Reaction was started by addition of the CES1 to the final concentration 0.01 μg/mL. 100 μL aliquots were taken after 0.5 min, 3 hrs and 21 hrs of the incubation and the reaction was stopped by mixing with 100 μl of the ice-cold methanol prior to HPLC analysis.
# Samples were analyzed by HPLC using 5 μC-18, 4.6×250 mm Phenomenex® Columbus column (Phenomenex USA, Calif.). The mobile phase consisted of buffer A (25 mM potassium phosphate with 5 mM tetrabutylammonium dihydrogen phosphate pH 6.3) and buffer B (100% methanol).
# [3] = Plasma nucleoside and liver triphosphate PK after single oral dose (Example 4); type: in vivo, CD-1 mice; conditions: at 1 μmol/kg; single oral dose 10 mg/kg in PEG 200
# Protocol: as §1, with “for” for “for the prodrug and”, “LC-MS/MS. The internal standard (IS) was either 2′-MeG-D3 or tiapride.” for “LC-MS/MS.”, “the” for “an appropriate”, “API5000” for “API4000”, “interface. The calibration range was 0.500 (LLOQ) to 200 ng/mL in mouse plasma.” for “interface.”
# Internal standard solution was added to the homogenate followed by neutralization with 20% ammonium hydroxide solution and addition of 500 μL 1% formic acid. The tissue samples were extracted by weak anion exchange solid phase extraction (SPE). Post extraction, the eluates were evaporated under nitrogen, followed by reconstitution before injection onto the LC-MS/MS system.
# HCV genotype 1b replicon = assay: HCV replicon assay; type: cell-based; conditions: Zluc (Huh-7-derived) cells, luciferase reporter, 72 hours; read-out: HCV Replicon EC50
# Protocol: Huh-7-derived cell line (Zluc) that harbors an HCV genotype 1b replicon and a luciferase reporter gene was grown in Dulbecco's Modified Eagle Medium (DMEM) supplemented with 10% fetal bovine serum, 2 mM GlutaMAX, 1% MEM nonessential amino acids, 100 IU/mL penicillin, 100 μg/mL streptomycin, and 0.5 mg/mL Geneticin® (G418). For dose response testing the cells were seeded in 96-well plates at 7.5×10^3 cells per well in a volume of 50 μL, and incubated at 37° C./5% CO2. Drug solutions were made up freshly in Huh-7 media as 2× stocks. Ten additional 5-fold dilutions were prepared from these stocks in DMEM without G418. At least three hours after Zluc cells were seeded, drug treatment was initiated by adding 50 μL of drug dilutions to the plates in duplicate. Final concentrations of drug ranged from 100 μM to […]. Cells were then incubated at 37° C./5% CO2. Alternatively, compounds were tested at two concentrations (1 μM and 10 μM). […] For this, media was removed from the plates via gentle tapping. Fifty microliters of ONE-glo luciferase assay reagent was added to each well. The plates were shaken gently for 3 min at room temperature and luminescence was measured on a Victor^3 V 1420 multilabel counter (Perkin Elmer) with a 1 second read time using a 700 nm cut-off filter. The EC50 values were calculated from dose response curves from the resulting best-fit equations determined by Microsoft Excel and XLfit 4.1 software. When screening at two fixed concentrations, the results were expressed as % inhibition at 1 μM and 10 μM.
structure (smiles),measurement,setting,value
"CC(C)OP1(=O)OC[C@H]2O[C@@H](n3ccc(=O)[nH]c3=O)[C@](C)(Cl)[C@@H]2O1 (single isomer, unassigned; diastereomer 2) [37 Diastereomer 2]",Nucleoside triphosphate in Liver C6,"[1]; 6 hours post dose, normalized to 1 μmol/kg dose",1500 pmol/g
same,Nucleoside triphosphate in Liver Tmax,[1],12 h
same,Plasma nucleoside Tmax,[1],4 h
same,Plasma prodrug Tmax,[1],4 h
same,Nucleoside triphosphate in Liver AUC0-24,[1]; normalized to 1 μmol/kg dose,29000 pmol·h/g
same,Nucleoside triphosphate in Liver Cmax,[1]; normalized to 1 μmol/kg dose,1700 pmol/g
same,Plasma nucleoside AUC0-24,[1]; normalized to 1 μmol/kg dose,0.65 µM·h
same,Plasma prodrug AUC0-24,[1]; normalized to 1 μmol/kg dose,4 µM·h
same,Cmax,"[1]; normalized to 1 μmol/kg dose, read-out: Plasma nucleoside Cmax",51 nM
same,Cmax,"[1]; normalized to 1 μmol/kg dose, read-out: Plasma prodrug Cmax",840 nM
"CCCCOC(=O)[C@@H](C)NP(=O)(OC[C@H]1O[C@@H](n2ccc(=O)[nH]c2=O)[C@](C)(Cl)[C@@H]1O)Oc1ccccc1 (single isomer, unassigned) [202i Diastereomer 1]",CC50,Zluc cells,> 50 µM
"CC(C)OC(=O)[C@H](C)N[P@](=O)(OC[C@H]1O[C@@H](n2ccc(=O)[nH]c2=O)[C@](C)(F)[C@@H]1O)Oc1ccccc1 (single isomer, unassigned) [GS-7977, reference compound]",Huh-7 AUC0-72,Huh-7 cells,63555 pmol*hr/10^6cells
same,Hydrolysis by CatA,cathepsin A (CatA),hydrolyzed
same,CatA hydrolysis,"cathepsin A (CatA); @ 18 h, 100 μM compound, 37° C., pH 6.0",100% @
same,CatA cleavage efficiency relative to the RP diastereoisomer,cathepsin A (CatA); GS-7977 (SP) versus RP diastereoisomer,10 times
same,Hydrolysis by CES1,[2],hydrolyzed
same,CES1 hydrolysis,[2]; 3 h,12%/3 h;
same,CES1 hydrolysis,[2]; 21 h,15%/21 h
"CCCCOC(=O)[C@@H](C)NP(=O)(OC[C@H]1O[C@@H](n2ccc(=O)[nH]c2=O)[C@](C)(Cl)[C@@H]1O)Oc1ccccc1 (single isomer, unassigned; diastereomer 2) [202i Diastereomer 2]",CC50,Zluc cells,> 50 µM
same,Ms Plasma nucleoside AUC,[3],0.00612 M·s
same,EC50,HCV genotype 1b replicon,0.25 to 1 µM
"C[C@@H](NP(=O)(OC[C@H]1O[C@@H](n2ccc(=O)[nH]c2=O)[C@](C)(Cl)[C@@H]1O)Oc1ccccc1)C(=O)OCc1ccccc1 (single isomer, unassigned) [205i Diastereomer 1]",CC50,Zluc cells,> 50 µM
"C[C@@H](NP(=O)(OC[C@H]1O[C@@H](n2ccc(=O)[nH]c2=O)[C@](C)(Cl)[C@@H]1O)Oc1ccccc1)C(=O)OCc1ccccc1 (single isomer, unassigned; diastereomer 2) [205i Diastereomer 2]",CC50,Zluc cells,> 50 µM
same,Ms Plasma nucleoside AUC,[3],0.00612 M·s
same,EC50,HCV genotype 1b replicon,0.25 to 1 µM
